EP0531640B1, “Antibiotic LL-E19020 Gamma” (F. HOFFMANN-LA ROCHE AG, priority 1991, dated 1993)
In brackets after ≈: the same amount, converted by molar mass.

How the values were obtained:
[1] = Growth of chickens and efficiency of feed utilization; format: in vivo, Peterson X Arbor Acres chicks; details: 25 ppm in the diet
Experimental: In this test, one day old Peterson X Arbor Acres chicks are sorted into equal weight groups of 5 males and 5 females per cage. Cages are randomized to treatment groups with six replicates per treatment. The test compound is evaluated 25 ppm in the diet against chicks receiving a non-medicated diet and a diet containing 200 ppm of penicillin as a positive control.
The cages are weighed at day 1 and at day 14 and feed consumption is measured on weigh days. Feed and water are offered ad libitum and lighting and supplemental heat are provided continuously.
The poultry diet employed in the test is as follows:
The vitamin-amino acid premix in the above feed composition is prepared from the following formulation. The expressions of quantity relate to units per kilogram of the finished feed composition.

[2] = system: non-enterococcal streptococci; assay: MIC by agar dilution, summary for non-enterococcal streptococci; format: cell-based; details: 18 h; text summary: relatively good activity against non-enterococcal streptococci
Experimental: (§1) The in vitro antibacterial activity of LL-E19020 Gamma is determined against a spectrum of gram positive and gram negative bacteria by a standard agar dilution method. Mueller-Hinton agar containing 5% sheep blood and two-fold decreasing concentrations of LL-E19020 Gamma is poured into petri dishes. The agar surfaces are inoculated with 1 to 5X10^4 colony forming units of bacteria by means of the Steers replicating device. The lowest concentration of antibiotic that inhibits growth of a bacterial strain after 18 hours incubation is recorded as the minimal inhibitory concentration for that strain.
• 1. Serial two-flow dilutions of drug are prepared in Mueller-Hinton broth in a range of 2560 µg/ml-0.15 µg/ml plus a solvent control. • 2. Two milliliters of drug dilution (10X) are added to sterile screw cap bottles to which 18 ml of Mueller-Hinton agar containing 5.6% defibrinated sheep blood is added. Final drug concentration ranges 256 µg/ml-0.015 µg/ml in agar containing 5% sheep blood. • 3. A few isolated colonies of each test organism are inoculated into 5 ml trypticase soy broth or brain heart infusion broth. The cultures are shaken at 35 °C. for 5 hours. • 4. Each culture is diluted 1:50 (10^-1.7) in Mueller-Hinton broth and applied to agar plates using a Steers replicator. Control plates should be seeded last to ensure that viable organisms are present throughout the procedure. […]

[3] = In vivo toxicity in uninfected mice; details: for In Vivo Toxicity: Survival Ratio 7 Days After Administration Of Single Subcutaneous Dose: uninfected mice
Experimental: (§2) The in vivo antibacterial activity of antibiotic LL-E19020 Gamma is established by infecting female CD-1 mice from Charles River Laboratories, weighing 20±2 g each, intraperitoneally with either 2.0 X 10^2 CFU/0.5 ml Streptococcus pyogenes C203 suspended in broth or 2.8 X 10^6 CFU/0.5 ml Straphylococcus aureus Smith suspended in 5% hog gastric mucin. The mice were treated subcutaneously, 30 minutes after infection with the indicated dose of the test compound in 0.5 ml of 0.2% aqueous agar. Toxicity studies were performed administering the same treatment to uninfected mice.

[4] = system: Bacillus cereus DAVIES; assay: MIC by agar dilution; format: cell-based; details: Mueller-Hinton agar, 5% sheep blood, 18 hours, read-out: MINIMAL INHIBITORY CONCENTRATION
Experimental: as §1
(§3) • 1. Serial two-flow dilutions of drug are prepared in Mueller-Hinton broth in a range of 2560 µg/ml-0.15 µg/ml plus a solvent control. • 2. Two milliliters of drug dilution (10X) are added to sterile screw cap bottles to which 18 ml of Mueller-Hinton agar containing 5.6% defibrinated sheep blood is added. Final drug concentration ranges 256 µg/ml-0.015 µg/ml in agar containing 5% sheep blood. • 3. A few isolated colonies of each test organism are inoculated into 5 ml trypticase soy broth or brain heart infusion broth. The cultures are shaken at 35 °C. for 5 hours. • 4. Each culture is diluted 1:50 (10^-1.7) in Mueller-Hinton broth and applied to agar plates using a Steers replicator. Control plates should be seeded last to ensure that viable organisms are present throughout the procedure. Inoculated agar plates are allowed to stand undisturbed until the inoculum spots are completely absorbed. • 5. The plates are inverted and incubated at 35 °C. for 18 hours with CO2. • 6. The minimum inhibitory concentration (MIC) is taken as the lowest concentration of antimicrobial agent at which complete inhibition of antimicrobial agent at which complete inhibition occurs. A very fine, barely visible haze or a single colony is disregarded.

[5] = system: Streptococcus pyogenes C203 (MP); assay: MIC by agar dilution; format: cell-based; details: Mueller-Hinton agar, 5% sheep blood, 18 hours, read-out: MINIMAL INHIBITORY CONCENTRATION
Experimental: as §1, §3

[6] = system: Staphylococcus aureus NEMC 87-69; assay: MIC by agar dilution; format: cell-based; details: NEMC8769, Mueller-Hinton agar, 5% sheep blood, 18 hours, read-out: MINIMAL INHIBITORY CONCENTRATION
Experimental: as §1, §3

[7] = system: Staphylococcus haemolyticus AVAH 88-3; assay: MIC by agar dilution; format: cell-based; details: AVAH883, Mueller-Hinton agar, 5% sheep blood, 18 hours, read-out: MINIMAL INHIBITORY CONCENTRATION
Experimental: as §1, §3

[8] = system: Streptococcus pneumoniae TEX 85-2; assay: MIC by agar dilution; format: cell-based; details: TEX852, Mueller-Hinton agar, 5% sheep blood, 18 hours, read-out: MINIMAL INHIBITORY CONCENTRATION
Experimental: as §1, §3

[9] = system: Staphylococcus aureus IVES 396; assay: MIC by agar dilution; format: cell-based; details: IVES396, Mueller-Hinton agar, 5% sheep blood, 18 hours, read-out: MINIMAL INHIBITORY CONCENTRATION
Experimental: as §1, §3

[10] = system: Staphylococcus aureus ATCC 25923; assay: MIC by agar dilution; format: cell-based; details: ATCC25923, Mueller-Hinton agar, 5% sheep blood, 18 hours, read-out: MINIMAL INHIBITORY CONCENTRATION
Experimental: as §1, §3

[11] = system: Staphylococcus aureus VGH 84-47; assay: MIC by agar dilution; format: cell-based; details: VGH8447, 18 h, read-out: MINIMAL INHIBITORY CONCENTRATION
Experimental: as §1, §3

[12] = system: Staphylococcus aureus ROSE (MP); assay: MIC by agar dilution; format: cell-based; details: Mueller-Hinton agar, 5% sheep blood, 18 hours, read-out: MINIMAL INHIBITORY CONCENTRATION
Experimental: as §1, §3

[13] = system: Streptococcus pyogenes AMCH 88-84; assay: MIC by agar dilution; format: cell-based; details: AMCH8884, Mueller-Hinton agar, 5% sheep blood, 18 hours, read-out: MINIMAL INHIBITORY CONCENTRATION
Experimental: as §1, §3

[14] = system: Streptococcus pyogenes C203; assay: In vivo antibacterial activity, acute lethal infection in mice; details: for Survival Ratio 7 Days After Infection With S. pyogenes C203: mice, 30 minutes after infection
Experimental: as §2

[15] = system: Staphylococcus aureus Smith; assay: as above; details: for Survival Ratio 7 Days After Infection With S. aureus Smith: mice, 30 minutes after infection
Experimental: as §2

[16] = Single Subcutaneous Dose 0.5 MG/KG
[17] = Single Subcutaneous Dose 1 MG/KG
[18] = Single Subcutaneous Dose 2 MG/KG
[19] = Single Subcutaneous Dose 4 MG/KG
[20] = Single Subcutaneous Dose 8 MG/KG
[21] = Single Subcutaneous Dose 16 MG/KG

With C/C=C\C=C\C1OC(O)(C(COC2CC(OC)C(OC3CC(OC)C(OC4CC(OC)C(O)C(C)O4)C(C)O3)C(C)O2)C(=O)NC/C=C/C=C(\C)C(OC)C(C)C2CC(O)C(/C=C/C=C/C=C/C(=O)O)O2)C(OC(=O)Cc2ccc(O)cc2)C(O)C1(C)C (stereo not drawn) [LL-E19020 Gamma] the “Weight Gain” value ([1]; chicks, day 1 to day 14) was 342 g, the “Weight Gain, % improvement over control” value ([1]; chicks, day 1 to day 14) was 6.5% and the feed conversion ([1]; chicks, day 1 to day 14) was 1.297. For the same compound, the “feed conversion, % improvement over control” value ([1]; chicks, day 1 to day 14) was 1.9%, the “efficiency of feed utilization, result in words” value ([1]; over unmedicated controls) was “increased the efficiency of feed utilization” and the “weight gain of chicks, result in words” value ([1]; over unmedicated controls) was “improved weight gain of chicks”. The MIC [2] was 0.12 to 16 µg/mL (≈ 0.0966 to 12.9 µM), the toxic symptoms ([3]; dosed subcutaneously at the same levels used in the protection study (0.5-64 mg/kg)) was “did not exhibit toxic symptoms” and the “In Vivo Toxicity: Survival Ratio 7 Days After Administration Of Single Subcutaneous Dose” value ([3]; 0.5 MG/KG) was 2/2. The “In Vivo Toxicity: Survival Ratio 7 Days After Administration Of Single Subcutaneous Dose” value ([3]; 1 MG/KG) was 2/2, the “In Vivo Toxicity: Survival Ratio 7 Days After Administration Of Single Subcutaneous Dose” value ([3]; 2 MG/KG) was 2/2 and the “In Vivo Toxicity: Survival Ratio 7 Days After Administration Of Single Subcutaneous Dose” value ([3]; 4 MG/KG) was 2/2. The “In Vivo Toxicity: Survival Ratio 7 Days After Administration Of Single Subcutaneous Dose” value ([3]; 8 MG/KG) was 2/2, the “In Vivo Toxicity: Survival Ratio 7 Days After Administration Of Single Subcutaneous Dose” value ([3]; 16 MG/KG) was 2/2 and the “In Vivo Toxicity: Survival Ratio 7 Days After Administration Of Single Subcutaneous Dose” value ([3]; 32 MG/KG) was 2/2. For the same compound, the “In Vivo Toxicity: Survival Ratio 7 Days After Administration Of Single Subcutaneous Dose” value ([3]; 64 MG/KG) was 2/2, the MIC [4] was 32 µg/mL (≈ 25.8 µM) and the MIC [5] was 0.12 µg/mL (≈ 0.0966 µM). The MIC [6] was 32 µg/mL (≈ 25.8 µM), the MIC [7] was 16 µg/mL (≈ 12.9 µM) and the MIC [8] was 0.5 µg/mL (≈ 0.402 µM). The MIC [9] was 64 µg/mL (≈ 51.5 µM), the MIC [10] was > 128 µg/mL and the MIC [11] was 64 µg/mL (≈ 51.5 µM). For the same compound, the MIC [12] was 32 µg/mL (≈ 25.8 µM), the MIC [13] was 0.12 µg/mL (≈ 0.0966 µM) and the “Survival Ratio 7 Days After Infection With S. pyogenes C203” value [14, 16] was 0/5. For the same compound, the “Survival Ratio 7 Days After Infection With S. pyogenes C203” value [14, 17] was 0/5, the “Survival Ratio 7 Days After Infection With S. pyogenes C203” value [14, 18] was 0/5 and the “Survival Ratio 7 Days After Infection With S. pyogenes C203” value [14, 19] was 1/5. The “Survival Ratio 7 Days After Infection With S. pyogenes C203” value [14, 20] was 3/5, the “Survival Ratio 7 Days After Infection With S. pyogenes C203” value [14, 21] was 4/5 and the ED50 ([14]; sc, acute lethal infection in mice, Streptococcus pyogenes C203, single subcutaneous dose, read-out: approximate ED50) was 4 to 8 mg/kg. For the same compound, the “Survival Ratio 7 Days After Infection With S. aureus Smith” value [15, 16] was 0/5, the “Survival Ratio 7 Days After Infection With S. aureus Smith” value [15, 17] was 0/5 and the “Survival Ratio 7 Days After Infection With S. aureus Smith” value [15, 18] was 0/5. The “Survival Ratio 7 Days After Infection With S. aureus Smith” value [15, 19] was 0/5, the “Survival Ratio 7 Days After Infection With S. aureus Smith” value [15, 20] was 0/5 and the “Survival Ratio 7 Days After Infection With S. aureus Smith” value [15, 21] was 0/5. For the same compound, the “Survival Ratio 7 Days After Infection With S. aureus Smith” value ([15]; Single Subcutaneous Dose 32 MG/KG) was 0/5, the “Survival Ratio 7 Days After Infection With S. aureus Smith” value ([15]; Single Subcutaneous Dose 64 MG/KG) was 0/5 and the ED50 ([15]; sc, acute lethal infection in mice, Staphylococcus aureus Smith, single subcutaneous dose, read-out: approximate ED50) was > 64 mg/kg.
